Where no end group is shown, it is not given here. [ ]: non-standard residue; d: D form. Ava = NCCCCC(=O)O
Test system: FR74-specific T cells
Experiment: Proliferation (thymidine incorporation) of T cells generated ex vivo with polypeptides
Type: cell-based, FVB/N mice
Settings: thymidine incorporation against native FR74; FIG. 5
Procedure: FIG. 5 is a graph plotting proliferation (as measured by thymidine incorporation (CPM)) of T cells treated with the indicated polypeptides. Epitope nesting activates high affinity antigen-specific T cells. T cells were tested for incorporation against native FR74 polypeptide at various concentrations. Each data point is the mean of 3 determinations.
In terms of proliferation, only the dual modified polypeptide was able to generate T cells that were able to proliferate at 10^−9 g/mL (FIG. 5).
In order to determine whether furin cleavage is required, two methods are used: furin insensitive linkers and furin inhibitors. Blockade of enhanced ex vivo expansion mediated by the DC3 peptide using these two methods is powerful evidence, outside of a furin knockout mouse, that furin is required for the actions of DC3. Although it has already been shown that DC3 must be linked to antigen, as a control T cells are expanded using free FR74 mixed with free DC3. To test the role of furin with furin-insensitive linkers, RARR (SEQ ID NO:4) is replaced with VRVV (SEQ ID NO:41) with the polypeptides FR74.1, FR74.3, and FR74.8 as shown in FIG. 17. In parallel with these cultures, cultures are included in which inhibitors are included. […] On day 5, CPG is added to the cultures at 1 μg/mL, and the cells are ready for T cell induction on day 6. […]

Substance: FR74.4: dual conjugated polypeptide: FR74 nested between Ii-key and DC3 (Ac-LRMK[Ava]KDISYLYRFNWNHCGRARRFYPSYHSTPQRP)
- lowest peptide concentration at which generated T cells proliferate: 10^−9 g/mL

Reference: patent US8858952B2, “Methods and materials for generating T cells” (Mayo Foundation for Medical Education and Research, priority 2009, dated 2014)
